In article PMC3071652 (Cell, 2011):

B3: Thermotoga maritima Mre11 (residues L7M-385) (enzyme, UniProt Q9X1X0 7-385, looked up)
chain: MKILHTSDWHLGVTSWTSSRPVDRREELKKALDKVVEEAEKREVDLILLTGDLLHSRNNPSVVALHDLLDYLKRMMRTAPVVVLPGNHDWKGLKLFGNFVTSISSDITFVMSFEPVDVEAKRGQKVRILPFPYPDESEALRKNEGDFRFFLESRLNKLYEEALKKEDFAIFMGHFTVEGLAGYAGIEQGREIIINRALIPSVVDYAALGHIHSFREIQKQPLTIYPGSLIRIDFGEEADEKGAVFVELKRGEPPRYERIDASPLPLKTLYYKKIDTSALKSIRDFCRNFPGYVRVVYEEDSGILPDLMGEIDNLVKIERKSRREIEEVLRESPEEFKEELDKLDYFELFKEYLKKREENHEKLLKILDELLDEVKKSEA

Legend:
[1] = biological target: T1, TmMre11:Rad50^NBD (TmMR^NBD catalytic head) (Thermotoga maritima, UniProt Q9X1X1, DEL191-685); test: SAXS, compaction of catalytic head; type: binding; conditions: 50 mM Tris pH 7.7, 100 mM NaCl, 5 mM MnCl2, 10 mM MgCl2
[2] = biological target: TmMre11:Rad50^NBD (TmMR^NBD catalytic head) (Thermotoga maritima, UniProt Q9X1X1, N64C/DEL191-685/I760C); test: ATP-dependent BMOE crosslinking of Rad50 NBDs, SDS PAGE; type: binding
[3] = biological target: TmMre11:Rad50^NBD (TmMR^NBD catalytic head) (Thermotoga maritima, UniProt Q9X1X1, DEL191-685/D804C/H830C, form not given); test: ATP-induced disulfide bond formation between Rad50 NBDs; type: binding; conditions: Cu2+
[4] = biological target: TmMre11:Rad50^NBD (TmMR^NBD catalytic head) (Thermotoga maritima, UniProt Q9X1X1, DEL191-685/D804C/H830C); test: as above; type: binding; conditions: Cu2+
[5] = biological target: T1, TmMre11:Rad50^NBD (TmMR^NBD catalytic head); test: ATPase activity; type: biochemical
[6] = biological target: TmMre11:Rad50^NBD (TmMR^NBD catalytic head) (Thermotoga maritima, UniProt Q9X1X1, DEL191-685, form not given); test: reduced BMOE crosslinking of Mre11 dimer, SDS PAGE; type: binding; conditions: nucleotide binds Rad50; read-out at Mre11 dimer interface
[7] = biological target: T1, TmMre11:Rad50^NBD (TmMR^NBD catalytic head); test: SPR and EMSA, nucleotide-stimulated DNA binding; type: biochemical; conditions: dsDNA 50mer, hairpin DNA
[8] = biological target: B3; test: crystal structure
co-purification = biological target: the molecule itself; test: co-purification
crystal structure = biological target: the molecule itself; test: crystal structure

Chain of TmMre11:Rad50^NBD (TmMR^NBD catalytic head) (Thermotoga maritima, UniProt Q9X1X1, N64C/DEL191-685/I760C) (Q9X1X1 1-190 N64C, one chain of several): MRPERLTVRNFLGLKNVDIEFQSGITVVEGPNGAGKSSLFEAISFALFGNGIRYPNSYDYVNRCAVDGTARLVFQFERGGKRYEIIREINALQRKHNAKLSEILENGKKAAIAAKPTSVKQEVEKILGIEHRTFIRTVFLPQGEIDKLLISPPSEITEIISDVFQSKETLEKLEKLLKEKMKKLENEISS
Chain of TmMre11:Rad50^NBD (TmMR^NBD catalytic head) (Thermotoga maritima, UniProt Q9X1X1, N64C/DEL191-685/I760C) (Q9X1X1 686-852 I760C, one chain of several): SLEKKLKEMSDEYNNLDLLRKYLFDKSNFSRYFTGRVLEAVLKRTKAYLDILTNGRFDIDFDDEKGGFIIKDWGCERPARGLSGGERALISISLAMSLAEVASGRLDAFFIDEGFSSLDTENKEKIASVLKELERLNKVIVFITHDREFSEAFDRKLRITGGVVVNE
Chain of TmMre11:Rad50^NBD (TmMR^NBD catalytic head) (Thermotoga maritima, UniProt Q9X1X1, DEL191-685/D804C/H830C, form not given) (Q9X1X0 7-385 L7M/F291S, form open, one chain of several, further chain): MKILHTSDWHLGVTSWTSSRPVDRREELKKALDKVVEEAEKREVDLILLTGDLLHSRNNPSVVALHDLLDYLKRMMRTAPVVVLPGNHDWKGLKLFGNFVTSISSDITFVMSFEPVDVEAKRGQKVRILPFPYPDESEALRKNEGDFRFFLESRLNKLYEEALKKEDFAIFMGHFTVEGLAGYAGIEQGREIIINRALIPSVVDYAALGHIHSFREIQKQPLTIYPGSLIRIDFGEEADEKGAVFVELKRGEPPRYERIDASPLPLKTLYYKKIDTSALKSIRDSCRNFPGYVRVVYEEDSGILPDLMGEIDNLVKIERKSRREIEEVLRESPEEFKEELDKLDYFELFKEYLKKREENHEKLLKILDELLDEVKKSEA
Chain of TmMre11:Rad50^NBD (TmMR^NBD catalytic head) (Thermotoga maritima, UniProt Q9X1X1, DEL191-685/D804C/H830C, form not given) (Q9X1X1 686-852 D804C/H830C, form open, one chain of several): as the sequence (Q9X1X1 686-852 I760C, one chain of several) above, with C75I, D119C, H145C counted along it
Chain of TmMre11:Rad50^NBD (TmMR^NBD catalytic head) (Thermotoga maritima, UniProt Q9X1X1, DEL191-685/D804C/H830C) (Q9X1X1 686-852 D804C/H830C, one chain of several): as the sequence (Q9X1X1 686-852 I760C, one chain of several) above, with C75I, D119C, H145C counted along it

Nc1ncnc2c1ncn2[C@@H]1O[C@H](COP(=O)(O)OP(=O)(O)OP(O)(O)=S)[C@@H](O)[C@H]1O [ATPγS]
SAXS, compaction of catalytic head (radius of gyration) [1]: Adding ATPγS indeed resulted in a substantial decrease of the radius of gyration (Rg)

Nc1ncnc2c1ncn2[C@@H]1O[C@H](COP(=O)(O)OP(=O)(O)OP(=O)(O)O)[C@@H](O)[C@H]1O [ATP]
ATP-dependent BMOE crosslinking of Rad50 NBDs, SDS PAGE [2]: crosslink the two NBDs in the presence of ATP, but not in the absence of ATP
ATP-induced disulfide bond formation between Rad50 NBDs [3]: we can now efficiently crosslink the NBDs by disulfide bond formation
ATP-induced disulfide bond formation between Rad50 NBDs [4]: ATP induced formation of a disulfide bond between D804C and H830C
ATPase activity [5]: Both proteins form a stoichiometric complex with ATPase as well as DNA binding activity
reduced BMOE crosslinking of Mre11 dimer, SDS PAGE [6]: ATP, AMPPNP and ATPγS reduced the ability of BMOE to crosslink Mre11 S110C dimers

Nc1ncnc2c1ncn2[C@@H]1O[C@H](COP(=O)(O)OP(=O)(O)NP(=O)(O)O)[C@@H](O)[C@H]1O [AMPPNP]
SPR and EMSA, nucleotide-stimulated DNA binding [7]: SPR showed a strong effect of AMPPNP on dsDNA and hairpin DNA binding by TmMre11:Rad50^NBD

B1: Thermotoga maritima Rad50^NBD (residues 1-190 and 686-852 joined by the linker GGAGGAGG) (domain or fragment)
chain: MRPERLTVRNFLGLKNVDIEFQSGITVVEGPNGAGKSSLFEAISFALFGNGIRYPNSYDYVNRNAVDGTARLVFQFERGGKRYEIIREINALQRKHNAKLSEILENGKKAAIAAKPTSVKQEVEKILGIEHRTFIRTVFLPQGEIDKLLISPPSEITEIISDVFQSKETLEKLEKLLKEKMKKLENEISSGGAGGAGGSLEKKLKEMSDEYNNLDLLRKYLFDKSNFSRYFTGRVLEAVLKRTKAYLDILTNGRFDIDFDDEKGGFIIKDWGIERPARGLSGGERALISISLAMSLAEVASGRLDAFFIDEGFSSLDTENKEKIASVLKELERLNKVIVFITHDREFSEAFDRKLRITGGVVVNE
binding result [8]: binds

B2: Thermotoga maritima Mre11 S110C (enzyme, UniProt Q9X1X0 7-385, looked up)
chain: MKILHTSDWHLGVTSWTSSRPVDRREELKKALDKVVEEAEKREVDLILLTGDLLHSRNNPSVVALHDLLDYLKRMMRTAPVVVLPGNHDWKGLKLFGNFVTSICSDITFVMSFEPVDVEAKRGQKVRILPFPYPDESEALRKNEGDFRFFLESRLNKLYEEALKKEDFAIFMGHFTVEGLAGYAGIEQGREIIINRALIPSVVDYAALGHIHSFREIQKQPLTIYPGSLIRIDFGEEADEKGAVFVELKRGEPPRYERIDASPLPLKTLYYKKIDTSALKSIRDFCRNFPGYVRVVYEEDSGILPDLMGEIDNLVKIERKSRREIEEVLRESPEEFKEELDKLDYFELFKEYLKKREENHEKLLKILDELLDEVKKSEA
binding result (co-purification): binds

B3
stoichiometry N (crystal structure): 2
